Laboratory results taken from patent US20170240592A1, “GADD45BETA/MKK7 INHIBITOR FOR THE TREATMENT OF A RESISTANT HAEMATOLOGICAL MALIGNANCY” (IMPERIAL INNOVATIONS LIMITED, priority 2014, published 2017).

Experiments:
[1] = plasmacytoma model, subcutaneous U266 myeloma xenografts; format: in vivo, NOD/SCID mice; conditions: male, NOD/SCID (NOD.CB17-Prkdc^scid/IcrCrl), mouse, plasma, sc, 14.5 mg/kg/day; continual infusion via osmotic pumps, 14.5 mg/kg/d; SEM, n=16; read-out: plasma concentration at the steady state
Description: (§1) Values denote means±SEM (n=16). ***, p<0.001.
(§2) Mice were housed in the animal facilities at Hammersmith. All experiments were conducted under PPL 70/6874, after approval by the Imperial College Ethical Review Process and the Home Office. For the plasmacytoma model, NOD/SCID mice (NOD.CB17-Prkdc^scid/IcrCrl; Charles River) were injected subcutaneously with 1.0×10^7 U266 or KMS-11 multiple myeloma cells, and then randomized into treatment groups and treated by infusion, as shown. Tumour volumes were measured as described in Mauro et al., 2011. For the orthotopic multiple myeloma model, mice of the same strain were sub-lethally irradiated and then injected intravenously with 1.0×10^7 KMS-12-BM multiple myeloma cells, as described in Rabin et al., 2007). Mice were then randomized into treatment groups and treated by infusion for 8 weeks, as shown. Animals were monitored daily and euthanized on day 161 of treatment start or when they reached any of the end-points in the PPL. Additional details are provided in the Supplemental Experimental Procedures.
(§3) Mice were housed in the animal facilities at the Hammersmith Campus, Imperial College London, and experiments were conducted under the Home Office Authority (PPL 70/6874). The PPL was reviewed by the Imperial College Ethical Review Process (ERP) and the Home Office. For experiments in the subcutaneous xenograft models (FIGS. 16-17), 6 to 8-week old male NOD/SCID mice (NOD.CB17-Prkdc^scid/IcrCrl; Charles River) were injected intraperitoneally with anti-CD122 monoclonal antibody (TM-β1 clone; 200 μg/mouse) (Tanaka et al., 1991) and, 24 hr later, subcutaneously in the left flank with 1.0×10^7 U266 or KMS-11 human multiple myeloma cells resuspended in 200 μL of sterile PBS and Matrigel (1:1) (BD Biosciences), using a 1-mL Luer-Lok™ Tip syringe (BD Biosciences) with a 25-gauge needle (Bhutani et al., 2007). U266 and KMS-11 cells were harvested from exponentially growing cultures, washed once with serum-free medium, and resuspended in PBS immediately before injection (Bhutani et al., 2007). The anti-CD122 antibody was affinity purified using HiTrap Protein G HP columns (GE Healthcare), according to the manufacturer's instructions. One week after injection of the cells, when tumour volumes had reached approximately 100 mm^3 (U266 cells) or tumours had yet to be palpable (KMS-11 cells), mice were randomized into treatment groups (n=16 or n=4 per group, respectively; day 0) (Bhutani et al., 2007) and, then, treated by continual infusion of DTP3 at a dose of 14.5 mg/kg/d, yielding a plasma concentration of 0.70±0.09 μM (SEM; n=16), or PBS. Treatments were administered using Alzet osmotic pumps (model 1004; 28-day delivery at the rate of […]; Charles River), implanted surgically subcutaneously into the right flank of each mouse, according to the manufacturer's instructions (Gullapalli et al., 2012). For systemic administration, DTP3 was dissolved at the concentration of 147 mg/mL in PBS, and mice were euthanized on day 28 of the start of treatment with CO2. Tumour diameters were measured at the indicated times using a vernier calliper, and volumes were estimated from calliper measurements using the following equation: volume=A×B^2/2 (where A is the larger diameter, and B is the smaller diameter of the tumour) (Mauro et al., 2011). Results were reproduced at least twice. The plasma concentration of DTP3 was measured at the steady state by LC-MS/MS at Cyprotex, as described above.

[2] = test system: subcutaneous U266 myeloma xenografts; test: as above; format: in vivo, NOD/SCID mice; conditions: for effect on established subcutaneous myeloma xenografts (tumour volume): to day 28
Description: as §1, §2, §3

[3] = thermodynamic solubility; format: physicochemical; conditions: PBS pH 7.4, at 37° C. for 14 days
Description: In vitro pharmacokinetic assays were performed according to established, in-house protocols and included: plasma stability (human), thermodynamic solubility (PBS pH 7.4, at 37° C. for 14 days), microsomal stability (human), plasma protein binding (PPB; mouse and human), and distribution coefficient (Log D). In vivo pharmacokinetic analyses were also performed at Cyprotex according to established, in-house protocols. Briefly, the peptides were dissolved in PBS and administered by single intravenous injection to CD1 male mice at the dose of 10 mg/kg (25-30 g of total body weight; n=3 mice per time point per compound). Blood samples were collected in heparinized tubes at up to 7 time points after this injection (i.e. 0.08, 0.25, 0.5, 1, 2, 4 and 8 hr), and the plasma concentrations of the test peptide were determined at each time point by LC-MS/MS, using a five-point standard curve covering a peptide concentration range from 3 to 3,000 ng/mL. Standard curves were prepared using blank plasma matrices and treated in the same manner as the test samples. […] Values were calculated from the data of the peptide plasma concentration versus time curves using a non-compartmental model analysis, as described elsewhere (Groulx, 2006; Landaw and Di Stefano 3rd, 1982). […]

[4] = test system: diffuse large B-cell lymphoma (DLBCL) cell lines; test: PI nuclear staining assay, apoptotic cells in DLBCL cell lines; format: cell-based, human; conditions: 10 μM, 6 days
Description: Current treatment of diffuse large B-cell lymphoma typically involves treatment with combination therapy, such as cyclophosphamide, doxorubicin, vincristine and prednisone (CHOP), or rituximab, cyclophosphamide, doxorubicin, vincristine and prednisone (R-CHOP). With those current treatments, many patients relapse and/or develop drug resistance at some point. The potential of the Gadd45β/MKK7 inhibitor DTP3 to operate in these settings was evaluated, by determining levels of apoptosis in diffuse large B-cell lymphoma cell lines known to be resistant to current therapies (HT, SU-DHL-8, U-2932, RC-K8 and RIVA, see for example Kaneko et al, Clinical Cancer Research, 2014, 20, p 1814-1820; Naylor et al, Cancer Research, 2011, Volume 71, p 2643-2653; Lyu et al, Cancer Research, 2013, Volume 73, Issue 8, Supplement 1), following treatment of those cells with DTP3. These cells have CARD11, A20 and/or MYD88 mutations and are also known to be resistant to agents such as Bruton's tyrosine kinase inhibitors, spleen tyrosine kinase inhibitors, PI3K inhibitors and/or protein kinase C inhibitors.
The percentages of apoptotic cells are depicted.
A comparison was made between the ability of DTP3 to kill various DLBCL cell lines by apoptosis in vitro. Cell lines HT, SU-DHL-8, U-2932 and RC-K8 which are known to be sensitive to DTP3; and insensitive cell lines RI-1, NU-DUL-1, TMD8, and HBL1 were used. Cell death was assessed using a standard propidium iodide (PI) nuclear staining assay followed by flow cytometry whereby the proportion of cells with a sub G1-DNA content was measured after cells had been exposed to DTP3 for 6 days at 10 μM. As controls, further populations of cells were left untreated (UT) or were treated with a scrambled D-tripeptide (SCR) for 6 days.
Apoptosis analyses were performed using propidium iodide (PI) nuclear labelling, as described previously (Riccardi and Nicoletti, 2006). Briefly, cells were seeded at a density of 2×10^5 cells/well into wells of either 24- or 48-well plates and cultured in the presence or absence of treatment, as shown. Cells were then fixed in 70% ice-cold ethanol for 16 hr, washed in PBS, and treated with ribonuclease A (50 μg/mL) for 30 min at room temperature. Samples were finally stained with PI (50 μg/mL) in 0.1% sodium citrate buffer for 2 to 4 hr at 4° C. in the dark, and data were acquired using a FACSCalibur automated system (Becton Dickinson) and analysed with FlowJo.

[5] = 14.5 mg/kg/day continual infusion
[6] = 14.5 mg/kg/day, results not shown

## CC(=O)N[C@H](Cc1ccc(O)cc1)C(=O)N[C@H](CCCNC(=N)N)C(=O)N[C@H](Cc1ccccc1)C(N)=O [DTP3, Acetyl-Tyr-Arg-Phe-NH2]
[1]
  level at time molar: ~1000 nM
[2]; [5]
  side effects: absence of any apparent side effects
  effect on established subcutaneous myeloma xenografts (tumour volume): virtually eradicated
[2]; 14.5 mg/kg/day continual infusion, listed as DTP-3
  effect on established subcutaneous myeloma xenografts (tumour volume): dramatic shrinkage of the tumors
[2]; [6]
  appearance of caspase-3 and PARP-1 proteolysis products in tumour: 3 days
  appearance of phosphorylated JNK in tumour after onset of treatment: 24 h
[3]
  aqueous solubility: high aqueous solubility
[4]; HT, SU-DHL-8, U-2932, RC-K8
  apoptosis in DLBCL cell lines resistant to conventional DLBCL treatments: effective in causing apoptosis
  apoptosis in sensitive DLBCL cell lines: substantial increases in apoptosis
[4]; RI-1, NU-DUL-1, TMD8, HBL1
  apoptosis in insensitive DLBCL cell lines: no increase in apoptosis
